The text below walks through data of patent publication US20050042281A1, “Compositions for delivering therapeutic agents across the oral mucosa” (priority 2003, published 2005).

Series [1] can be described thus: Membrane assay (parallel artificial membrane, effective permeability). Particulars: for Papp: PAMPA. (In PAMPA a lipid-coated filter parts donor from acceptor wells.)
Procedure: (§1) This assay uses a lipid-coated membrane to predict lipid mucosal membrane penetration.
(§2) The membrane apparatus consists of a dodecane membrane sandwiched between a donor and acceptor cell.
(§3) Membrane assays were performed using oxycodone HCl solutions at a pH of 6.5, 9.5, and 10.0. The pH of the solutions was adjusted using a freshly prepared 0.01 M sodium bicarbonate—sodium carbonate buffer. Permeation was measured by determining the concentrations of oxycodone in the acceptor cell and is expressed as Pe (effective permeability in centimeters per second).
A short description of series [2]: Extent of un-ionized form at a given pH, worked out from pKa. Format: physicochemical. The text has this:
Conversion of the ionized form to the un-ionized form for basic agents is related to pH by the formula: pH=pKa +Log10 (Un-ionized concentration/Ionized concentration). When the pH is the same as the pKa, equimolar concentrations of the unionized form and ionized form exist. […] Similarly, when the pH is two units higher than the pKa, the ratio of un-ionized form to the ionized form is 100:1. As noted above, the un-ionized form is lipophilic and, therefore, more capable of passing through the mucous membranes than the ionized form, which is lipophobic in nature. Accordingly, increasing the pH of the saliva favors conversion of the ionized form into the un-ionized form for basic agents, and the final pH may be determined by making use of the above formula for any basic agent.

Series [3] is described as follows: in vitro. The note with it: PAMPA.
Procedure: as §1, §2, §3
For series [4] the following is noted: pH at which net charge is zero; cited from earlier work.

`Cc1nccn1CC1CCc2c(c3ccccc3n2C)C1=O` (stereo not shown) [Ondansetron]: the “increase of effective permeability” value in series [1] (pH 8.5 relative to pH 5.4) is on record as greater than 1000%; in series [1] (pH 8.5 relative to pH 7.4), “more than 200%”.
One may read the Papp as the rate of passage across a membrane or cell layer, normalised by area and donor concentration. For `COc1ccc2c3c1O[C@H]1C(=O)CC[C@@]4(O)[C@@H](C2)N(C)CC[C@]314` [Oxycodone, oxycodone], the figures for the un-ionized in series [2] (at pH 9.9) and in series [2] (at pH 10.9) were 99% and 100%, respectively. Besides, the Papp in series [1] (pH 6.5) stood at 227 ×10⁻⁶ cm/s; in series [1] (pH 9.5) it was 490 ×10⁻⁶ cm/s; in series [1] (pH 10), 554 ×10⁻⁶ cm/s.
As for `CNS(=O)(=O)Cc1ccc2[nH]cc(CCN(C)C)c2c1` [Sumatriptan, sumatriptan], the un-ionized in series [2] (at pH 10.5) was determined as 99%; in series [2] (at pH 11.5), 100%. The apparent permeability coefficient (Papp) in series [3] (pH 9) came out at 599 ×10⁻⁶ cm/s; in series [3] (pH 9.5), 945 ×10⁻⁶ cm/s; in series [3] (pH 10), 1560 ×10⁻⁶ cm/s.
With `CN1CCC23c4c5ccc(O)c4OC2C(O)C=CC3C1C5` (stereo not shown) [morphine], the isoelectric point in series [4] is 9.1.
